Tested on: spermatozoa present in free semen
Text: In order to obtain efficient fertilization, more than 50% of the spermatozoa have to be […] (i.e. having an individual displacement velocity of more than 20 micrometers per second).
Gedil® is a diluting agent consisting of a biological medium favorable to preservation of spermatozoa.

## [Ba+2].[Cl-].[Cl-] [BaCl2, barium chloride]
BaCl2 at 5 or 10% on free semen, after two days
  motility of the spermatozoa: significant reduction
Products present in the capsules
  effect on essential properties (such as the motility) of porcine spermatozoa: alter the essential properties
Spermatozoa diluted in media other than Gedil, addition of BaCl2
  toxicity (or stress) for spermatozoa: toxicity

Source: US20120295247A1, “PORCINE SEMINAL MATERIAL COMPOSITION FOR ARTIFICIAL INSEMINATION OF SOWS” (GENES DIFFUSION, priority 2009, published 2012)
